Data published in patent US9260439B2, “Dihydropyrrolopyrimidine derivatives” (PFIZER INC., priority 2014, dated 2016).
Counter-ions that a name gives are not always drawn.

biological target: truncated PI3Kα (p110α/iSH2 p85α) (Homo sapiens (Human), UniProt P42336); experiment: PI3KA_Act fluorescence polarization kinase assay (Ki); type: biochemical; settings: 1 mM ATP
From the text: 2) p110α-iSH2 p85α Complex (Full Length p110α and p85α iSH2)(“PI3KA_Act”)
Genes encoding for full length p110α and p85α nSH-iSH2=niSH2 (p85a aminoacids 322-600) subunits of PI3Kα complex were subcloned from existing constructs into pFASTBAC Dual vector (Life Technologies, Carlsbad, Calif.) using standard cloning procedures. Gene encoding p110α subunit was subcloned into polyhedrine promoter while gene encoding p85α niSH2 domains was subcloned into p10 promoter. Additionally, Human Rhinovirus 3C Protease (“HRV 3C”) site was introduced between nSH2 and iSH2, replacing aminoacids 431-438 of p85α with […] HRV 3C recognition sequence, using standard QuickChange mutagenesis protocol (Agilent Technologies, CA). Recombinant baculovirus was generated using Bac-to-Bac protocol (Life Technologies, Carlsbad, Calif.). Large scale expression was conducted in Sf21 (Life Technologies, Carlsbad, Calif.) cells at a multiplicity of infection (“MOI”)=1 for 48 hours. Cells were lyzed in 50 mM Tris pH 8.0, 250 mM NaCl, 5% glycerol, 0.25 mM TCEP, and 20 mM imidazole. The p110α-niSH2 p85α complex was purified from clarified supernatant using Immobilized Metalo Affinity Chromatography (“IMAC”). The protein was eluted from the column using 50 mM Tris pH 8.0, 200 mM NaCl, 0.25 mM TCEP, and 200 mM imidazole. Following elution p110α-niSH2 p85α complex was dialyzed against 4 liters of 50 mM Tris pH 8.0, 200 mM NaCl, 0.25 mM TCEP, and 40 mM imidazole in the presence of PreScission Protease (1:70 molar ratio of Protease to Protein) and TEV protease (1:40 molar ratio protease to protein) for 16 hours at 4° C. The protein was further purified using reverse IMAC to remove cleaved histidine tag and contaminants captured during initial IMAC purification. The mixture of p110α-iSH2 p85α complex and cleaved nSH2 was recovered in reverse IMAC 40 mM imidazole flow through and 60 mM imidazole wash fractions. Those fractions were pulled together and loaded on Superdex 200 26/60 SEC column equilibrated in 25 mM Tris, pH 8.0, 100 mM NaCl, 2% glycerol, and 2 mM TCEP. Following SEC, chromatography peak fractions containing p110α-iSH2 p85α complex were pulled and concentrated to 4.3 mg/mL. Purity and integrity of the complex was confirmed using LCMS, analytical SEC and SDS-PAGE (sodium dodecyl sulfate polyacrylamide gel electrophoresis) analysis.
The biochemical assays of kinase activity of full-length PI3Kα (full-length p110α/p85a) or truncated PI3Kα (p110α/iSH2 p85a) were conducted using a fluorescence polarization format similar to the procedure of Yuan J., et al., (2011) “PF-04691502, a Potent and Selective Oral Inhibitor of PI3K and mTOR Kinases with Antitumor Activity”, Mol Cancer Ther. 10, 2189-2199. The enzymatic reactions were conducted in 50 μL volumes in 96-well plates. The reactions contained human recombinant PI3Kα (2 nM full-length p110α/p85α or 0.5 nM p110α/iSH2 p85) and 30 μM phosphatidylinositol 4,5-bisphosphate (“PIP2”) (Cayman Chemical Company, Ann Arbor, Mich.) and were sonicated for 1 minute prior to adding PI3Kα enzyme (PI3KA_Act or PI3KA_FL), DMSO or test compound (12-point 3-fold serial dilution, 3 μM top dose, 2° A) DMSO final concentration), 5 mM MgCl2, 50 mM HEPES pH 7.4, 150 mM NaCl, 1 mM DTT ((2S,3S)-1,4-bis(sulfanyl)butane-2,3-diol), and 0.05% 3-[(3-cholamidopropyl)dimethylammonio]-1-propanesulfonate (“CHAPS”). […] The reactions were incubated for 30 min at room temperature, stopped with EDTA pH 8 (10 mM final concentration). In a detection plate, 15 μL of detector/probe mixture, containing 480 nM GST-Grp1 PH domain protein (University of Dundee, Dundee, UK) and 12 nM carboxytetramethylrhodamine (“TAMRA”)-tagged fluorescent phosphatidylinositol (3,4,5)-triphosphate (“PIP3”) (Echelon Biosciences, Inc., Salt Lake City, Utah) in assay buffer, was mixed with 15 μL of kinase reaction mixture. The plate was shaken for 30 minutes and fluorescence polarization values were measured on an LJL Analyst HT plate reader (Molecular Devices, Sunnyvale, Calif.). […]

Sequence of truncated PI3Kα (p110α/iSH2 p85α) (P42336 whole entry, the tested form may be a part): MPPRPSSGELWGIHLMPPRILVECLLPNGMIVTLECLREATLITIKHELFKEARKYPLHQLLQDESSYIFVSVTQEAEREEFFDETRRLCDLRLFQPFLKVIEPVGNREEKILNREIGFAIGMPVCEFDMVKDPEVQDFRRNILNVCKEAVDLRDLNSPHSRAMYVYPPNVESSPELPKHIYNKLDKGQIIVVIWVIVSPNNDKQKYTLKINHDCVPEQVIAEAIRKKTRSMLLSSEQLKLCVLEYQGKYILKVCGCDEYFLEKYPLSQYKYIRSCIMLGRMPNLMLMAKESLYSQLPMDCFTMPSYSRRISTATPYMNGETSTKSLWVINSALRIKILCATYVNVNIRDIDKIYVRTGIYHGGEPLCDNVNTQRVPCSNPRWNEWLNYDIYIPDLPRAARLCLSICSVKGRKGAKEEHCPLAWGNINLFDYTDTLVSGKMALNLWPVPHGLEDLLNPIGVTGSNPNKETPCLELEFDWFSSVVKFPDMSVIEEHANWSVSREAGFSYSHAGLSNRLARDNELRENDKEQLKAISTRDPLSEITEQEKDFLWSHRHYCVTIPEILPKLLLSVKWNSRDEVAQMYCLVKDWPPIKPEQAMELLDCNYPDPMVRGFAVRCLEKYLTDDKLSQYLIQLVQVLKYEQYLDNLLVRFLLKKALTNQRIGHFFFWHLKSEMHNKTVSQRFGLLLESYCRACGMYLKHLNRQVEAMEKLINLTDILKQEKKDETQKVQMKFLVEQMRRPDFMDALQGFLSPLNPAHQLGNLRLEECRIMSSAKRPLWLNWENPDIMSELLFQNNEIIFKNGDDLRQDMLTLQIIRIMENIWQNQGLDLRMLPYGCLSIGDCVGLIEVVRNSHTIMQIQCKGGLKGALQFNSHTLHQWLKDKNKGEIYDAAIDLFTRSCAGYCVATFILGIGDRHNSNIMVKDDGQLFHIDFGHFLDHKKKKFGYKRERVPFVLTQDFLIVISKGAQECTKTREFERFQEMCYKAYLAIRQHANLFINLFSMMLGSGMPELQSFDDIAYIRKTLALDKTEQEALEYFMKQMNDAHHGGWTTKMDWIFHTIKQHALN

In the case of `CNS(=O)(=O)N1CCC(C)(N2CCc3c(-c4cnc(N)nc4)nc(N4CCOCC4)nc32)C1` (racemic) [Example 162], the “PI3KA_Act Ki” value is reported as under 0.018 nM.
For `C[C@H]1COCCN1c1nc(-c2cnc(N)nc2)c2c(n1)N([C@@]1(C)CCN(C3CCNC3=O)C1)CC2` (single isomer, unassigned) [Example 515], the “PI3KA_Act Ki” value was under 0.081 nM.

Compared with `CC(C)(C)OC(=O)N1CCCC(C)(N2CCc3c(-c4cnc(N)nc4)nc(N4CCOCC4)nc32)C1` (racemic) [Example 434, tert-butyl 3-[4-(2-aminopyrimidin-5-yl)-2-(morpholin-4-yl)-5,6-dihydro-7H-pyrrolo[2,3-d]pyrimidin-7-yl]-3-methylpiperidine-1-carboxylate], `CC(C)(N)C(=O)N1CC[C@](C)(N2CCc3c(-c4cnc(N)nc4)nc(N4CCOCC4)nc32)C1` [Example 4, 2-amino-1-{(3S)-3-[4-(2-aminopyrimidin-5-yl)-2-(morpholin-4-yl)-5,6-dihydro-7H-pyrrolo[2,3-d]pyrimidin-7-yl]-3-methylpyrrolidin-1-yl}-2-methylpropan-1-one] is 9.6-fold lower in “PI3KA_Act Ki” value: 0.220 nM for the first, 0.023 nM for the second.

`CS(=O)(=O)N1CC2CC2(N2CCc3c(-c4cnc(N)nc4)nc(N4CCOCC4)nc32)C1` (racemic) [Example 435, 5-{7-[3-(methylsulfonyl)-3-azabicyclo[3.1.0]hex-1-yl]-2-(morpholin-4-yl)-6,7-dihydro-5H-pyrrolo[2,3-d]pyrimidin-4-yl}pyrimidin-2-amine] and `CNC(=O)N1CC[C@@](C)(N2CCc3c(-c4cnc(N)nc4)nc(N4CCOCC4)nc32)C1` [Example 2, (3R)-3-[4-(2-aminopyrimidin-5-yl)-2-(morpholin-4-yl)-5,6-dihydro-7H-pyrrolo[2,3-d]pyrimidin-7-yl]-N,3-dimethylpyrrolidine-1-carboxamide] are within 1.5-fold of each other in “PI3KA_Act Ki” value: 0.132 nM for the first, 0.160 nM for the second.

`C[C@]1(N2CCc3c(-c4cnc(N)nc4)nc(N4CCOCC4)nc32)CCN(C2CCNC2=O)C1` (single isomer, unassigned) [Example 7] and `C[C@]1(N2CCc3c(-c4cnc(N)nc4)nc(N4CCOCC4)nc32)CCN(C2CCCNC2=O)C1` (single isomer, unassigned) [Example 428] are within 1.5-fold of each other in “PI3KA_Act Ki” value: 0.091 nM for the first, 0.067 nM for the second.

First: CCC(C)(O)C(=O)N1CC[C@](C)(N2CCc3c(-c4cnc(N)nc4)nc(N4CCOCC4)nc32)C1 (single isomer, unassigned) [Example 273]
Second: CC(C(N)=O)C(=O)N1CC[C@](C)(N2CCc3c(-c4cnc(N)nc4)nc(N4CCOCC4)nc32)C1 (single isomer, unassigned) [Example 316]
The “PI3KA_Act Ki” value of the first is 4.6-fold higher: 0.087 nM for the first, 0.019 nM for the second.

Going from `CCC(C)(O)C(=O)N1CC[C@](C)(N2CCc3c(-c4cnc(N)nc4)nc(N4CCOCC4)nc32)C1` (single isomer, unassigned) [Example 274] to `C[C@@]1(N2CCc3c(-c4cnc(N)nc4)nc(N4CCOCC4)nc32)CCN(C(=O)C(O)C2CC2)C1` (single isomer, unassigned) [Example 326], the “PI3KA_Act Ki” value falls from 0.145 nM to 0.048 nM (3-fold).

Going from `C[C@@]1(N2CCc3c(-c4cnc(N)nc4)nc(N4CCOCC4)nc32)CCN(C(=O)C(O)C2CC2)C1` (single isomer, unassigned) [Example 327] to `CC1(C(=O)N2CC[C@](C)(N3CCc4c(-c5cnc(N)nc5)nc(N5CCOCC5)nc43)C2)CCCO1` (single isomer, unassigned) [Example 376], the “PI3KA_Act Ki” value rises from 0.028 nM to 0.090 nM (3.2-fold).

Compared with `CN1CCC(N2CC[C@](C)(N3CCc4c(-c5cnc(N)nc5)nc(N5CCOCC5)nc43)C2)C1=O` (single isomer, unassigned) [Example 426], `C[C@]1(N2CCc3c(-c4cnc(N)nc4)nc(N4CCOCC4)nc32)CCN(C2CCCNC2=O)C1` (single isomer, unassigned) [Example 429] is 3.1-fold higher in “PI3KA_Act Ki” value: 0.051 nM for the first, 0.160 nM for the second.

`CN1CCC(N2CC[C@](C)(N3CCc4c(-c5cnc(N)nc5)nc(N5CCOCC5)nc43)C2)C1=O` (single isomer, unassigned) [Example 427] and `C[C@H]1COCCN1c1nc(-c2cnc(N)nc2)c2c(n1)N([C@@]1(C)CCN(C3CCNC3=O)C1)CC2` (single isomer, unassigned) [Example 514] are within 1.5-fold of each other in “PI3KA_Act Ki” value: 0.073 nM for the first, 0.068 nM for the second.

With `Nc1ncc(-c2nc(N3CCOC[C@H]3CO)nc3c2CCN3C2CC(F)(F)C2)cn1` [Example 3, {(3R)-4-[4-(2-aminopyrimidin-5-yl)-7-(3,3-difluorocyclobutyl)-6,7-dihydro-5H-pyrrolo[2,3-d]pyrimidin-2-yl]morpholin-3-yl}methanol] the “PI3KA_Act Ki” value was 118.146 nM.

For `CS(=O)(=O)N1C[C@H]2C[C@@H]1[C@@H]2N1CCc2c(-c3cnc(N)nc3)nc(N3CCOCC3)nc21` (single isomer, unassigned) [Example 439], the Ki was 1.51 nM.
For `CS(=O)(=O)N1C[C@H]2C[C@@H]1[C@@H]2N1CCc2c(-c3cnc(N)nc3)nc(N3CCOCC3)nc21` (single isomer, unassigned) [Example 440], the Ki was 0.178 nM.

same assay, conditions: 1 mM ATP, hydrochloride

`CC1(C(=O)N2CC[C@](C)(N3CCc4c(-c5cnc(N)nc5)nc(N5CCOCC5)nc43)C2)CCCO1` (single isomer, unassigned) [Example 375, hydrochloride] and `C[C@H]1COCCN1c1nc(-c2cnc(N)nc2)c2c(n1)N([C@@]1(C)CCN(C(=O)C3(N)CCOC3)C1)CC2` (single isomer, unassigned) [Example 502, hydrochloride] are within 1.5-fold of each other in “PI3KA_Act Ki” value: 0.043 nM for the first, 0.064 nM for the second.

First: CC1(N2CCc3c(-c4cnc(N)nc4)nc(N4CCOCC4)nc32)CCCNC1 (single isomer, unassigned) [Example 431, 5-[7-(3-methylpiperidin-3-yl)-2-(morpholin-4-yl)-6,7-dihydro-5H-pyrrolo[2,3-d]pyrimidin-4-yl]pyrimidin-2-amine hydrochloride]
Second: C[C@H]1COCCN1c1nc(-c2cnc(N)nc2)c2c(n1)N(C1(C)CCCNC1)CC2 (single isomer, unassigned) [Example 517, hydrochloride]
The “PI3KA_Act Ki” value of the first is 1.6-fold higher: 14.544 nM for the first, 9.319 nM for the second.

`CC1(N2CCc3c(-c4cnc(N)nc4)nc(N4CCOCC4)nc32)CCCNC1` (single isomer, unassigned) [Example 432, 5-[7-(3-methylpiperidin-3-yl)-2-(morpholin-4-yl)-6,7-dihydro-5H-pyrrolo[2,3-d]pyrimidin-4-yl]pyrimidin-2-amine hydrochloride] and `C[C@H]1COCCN1c1nc(-c2cnc(N)nc2)c2c(n1)N(C1(C)CCCNC1)CC2` (single isomer, unassigned) [Example 518, hydrochloride] are within 1.5-fold of each other in “PI3KA_Act Ki” value: 11.739 nM for the first, 11.285 nM for the second.

With `C[C@H]1COCCN1c1nc(-c2cnc(N)nc2)c2c(n1)N([C@@]1(C)CCN(C(=O)C3(N)CCOC3)C1)CC2` (single isomer, unassigned) [Example 503, hydrochloride] the “PI3KA_Act Ki” value was 0.091 nM.
